According to ChEMBL document CHEMBL1201862, “PubChem BioAssay data set” (2004):
Active and inactive are the calls of the source.

Columns and labels:
[1] = molecular target: T1, Corticotropin-releasing factor receptor 2/Corticotropin-releasing factor-binding protein (Homo sapiens, UniProt P24387+Q13324); assay: activators of CRF receptor 2 with binding protein – uHTS hits, confirmation (AID 602473); format: functional; settings: read-out: EC50_Mean
T1 sequence (Q13324 whole entry): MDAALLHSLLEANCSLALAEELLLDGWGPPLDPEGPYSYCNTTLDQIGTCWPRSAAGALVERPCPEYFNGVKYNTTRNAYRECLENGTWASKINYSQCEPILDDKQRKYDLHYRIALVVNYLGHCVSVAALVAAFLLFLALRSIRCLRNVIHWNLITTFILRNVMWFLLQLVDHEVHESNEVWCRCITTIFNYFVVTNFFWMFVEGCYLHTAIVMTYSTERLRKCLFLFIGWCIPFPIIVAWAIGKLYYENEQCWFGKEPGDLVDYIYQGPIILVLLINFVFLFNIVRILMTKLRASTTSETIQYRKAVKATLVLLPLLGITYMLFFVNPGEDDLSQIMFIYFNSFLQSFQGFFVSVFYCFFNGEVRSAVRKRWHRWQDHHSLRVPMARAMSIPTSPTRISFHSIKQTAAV
T1 sequence (P24387 whole entry): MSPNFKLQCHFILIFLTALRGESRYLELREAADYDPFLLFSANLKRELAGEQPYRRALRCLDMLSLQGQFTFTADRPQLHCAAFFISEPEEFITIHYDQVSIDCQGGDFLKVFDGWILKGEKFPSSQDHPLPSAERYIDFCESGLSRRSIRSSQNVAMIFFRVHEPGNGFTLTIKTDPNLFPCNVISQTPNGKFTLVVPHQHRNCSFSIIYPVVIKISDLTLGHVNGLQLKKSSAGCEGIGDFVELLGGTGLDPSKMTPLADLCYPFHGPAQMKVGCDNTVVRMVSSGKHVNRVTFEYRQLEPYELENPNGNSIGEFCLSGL

[2] = molecular target: T1, Corticotropin-releasing factor receptor 2/Corticotropin-releasing factor-binding protein; assay: Dose Response confirmation of uHTS hits for small molecule antagonists of the CRF-binding protein and CRF-R2 receptor complex.; format: functional; settings: read-out: IC50_Mean
[3] = C. albicans growth with fluconazole, confirmation, fluorescence, retest (AID 2467); format: functional, cell-based
[4] = NIH-3T3 fibroblast cytotoxicity, dose response, cytotoxicity control, cell-based, fluorescence, Alamar Blue, secondary assay (AID 2327); format: functional;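 also: NIH-3T3 mouse fibroblasts cultured with fluconazole at 8 µg/mL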
Streptokinase A = molecular target: T2, Streptokinase A (Streptococcus pyogenes serotype M1, UniProt P10520); assay: S. pyogenes streptokinase expression inhibitors, potency, dose response, plasminogen activation absorbance, OD405 (AID 1914); format: functional, Streptococcus pyogenes M1 GAS;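 also: secreted streptokinase activity via plasminogen activation per viability signal from cell pellet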
T2 sequence (P10520 whole entry): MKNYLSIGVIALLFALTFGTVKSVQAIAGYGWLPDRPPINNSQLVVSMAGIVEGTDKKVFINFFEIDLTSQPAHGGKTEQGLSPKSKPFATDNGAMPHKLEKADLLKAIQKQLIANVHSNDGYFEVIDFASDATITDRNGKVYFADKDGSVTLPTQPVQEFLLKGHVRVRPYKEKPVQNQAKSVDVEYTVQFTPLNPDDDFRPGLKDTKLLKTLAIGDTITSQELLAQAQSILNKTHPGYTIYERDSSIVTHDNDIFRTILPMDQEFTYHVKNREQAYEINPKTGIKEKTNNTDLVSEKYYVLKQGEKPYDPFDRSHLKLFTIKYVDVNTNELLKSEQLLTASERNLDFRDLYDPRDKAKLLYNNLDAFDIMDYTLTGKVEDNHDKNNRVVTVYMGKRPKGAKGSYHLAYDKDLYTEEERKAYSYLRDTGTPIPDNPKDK

[5] = tested on: Streptococcus sp. 'group A'; assay: growth inhibition of control SK(-) GAS strain, dose response, counter-screen for streptokinase expression inhibitor project, luminescence, kanamycin, BacTiterGlo, confirmation (AID 1900); format: functional, organism-based
Streptococcus = assay: Group A Streptococcus viability loss, dose response, counter-screen for streptokinase expression inhibitor project, luminescence, BacTiterGlo (AID 1915); format: functional, organism-based;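 also: potency for reduction of bacterial viability or growth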
INS1 = assay: beta cell apoptosis inhibitors, cytokine rescue, dose response, luminescence, retest (AID 449756); format: functional, cell-based; settings: Rattus norvegicus;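 also: cell death triggered by IL-1 beta plus TNF-alpha plus IFN-gamma mixture; protective hits raise ATP signal compared with cytokine alone wells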
[6] = HepG2 cell cytotoxicity, dose response, cytotoxicity control for Shn3 inhibitor project, CellTiter-Glo, cherry-picked (AID 624134); format: functional, cell-based
[7] = control 3'UTR Renilla luciferase suppression, dose response, counter-screen for Shn3 inhibitor project, cell-based, Clone20-Shn3RL, cherry-picked (AID 624133); format: functional
[8] = Shn3 3'UTR reporter inhibitors, dose response, cell-based, Clone20 osteoblasts, firefly luciferase, cherry-picked (AID 624132); format: functional;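 also: firefly luciferase luminescence from reporter carrying the Shn3 3'UTR in osteoblasts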
[9] = molecular target: T3, Heat shock factor protein 1 (Mus musculus, UniProt P38532); assay: HSF1 potentiators in luciferase reporter cells, confirmation, cell-based, NIH3T3, luminescence, dose retest (AID 435004); format: functional;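 also: stress induced by proteasome inhibitor MG132 added 30 min after compound; luciferase reporter driven by HSF1 response element in NIH3T3 cells; actives raise luminescence as potentiators of the MG132 stress response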
T3 sequence (P38532 whole entry): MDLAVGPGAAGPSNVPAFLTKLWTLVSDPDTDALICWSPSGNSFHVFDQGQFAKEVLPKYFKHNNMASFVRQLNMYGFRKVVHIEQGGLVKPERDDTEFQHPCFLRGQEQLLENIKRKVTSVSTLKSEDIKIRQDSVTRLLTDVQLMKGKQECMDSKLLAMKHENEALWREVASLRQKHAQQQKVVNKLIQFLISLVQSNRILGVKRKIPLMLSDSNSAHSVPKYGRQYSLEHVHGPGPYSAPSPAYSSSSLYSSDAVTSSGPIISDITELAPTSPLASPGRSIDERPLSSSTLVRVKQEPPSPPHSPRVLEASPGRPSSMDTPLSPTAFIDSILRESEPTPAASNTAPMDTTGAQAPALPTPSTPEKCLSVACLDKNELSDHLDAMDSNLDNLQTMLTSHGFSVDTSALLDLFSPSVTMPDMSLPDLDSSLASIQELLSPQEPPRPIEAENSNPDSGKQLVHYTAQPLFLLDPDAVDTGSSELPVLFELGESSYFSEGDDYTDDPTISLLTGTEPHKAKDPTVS

Cytochrome P450 2C19 = Cytochrome P450 2C19 (Homo sapiens, UniProt P33261); assay: Cytochrome panel assay with activity outcomes. Panel member name: p450-cyp2c19 Compounds with AC50 equal or less than 10 uM are considered active; format: functional
Sequence of Cytochrome P450 2C19 (P33261 whole entry): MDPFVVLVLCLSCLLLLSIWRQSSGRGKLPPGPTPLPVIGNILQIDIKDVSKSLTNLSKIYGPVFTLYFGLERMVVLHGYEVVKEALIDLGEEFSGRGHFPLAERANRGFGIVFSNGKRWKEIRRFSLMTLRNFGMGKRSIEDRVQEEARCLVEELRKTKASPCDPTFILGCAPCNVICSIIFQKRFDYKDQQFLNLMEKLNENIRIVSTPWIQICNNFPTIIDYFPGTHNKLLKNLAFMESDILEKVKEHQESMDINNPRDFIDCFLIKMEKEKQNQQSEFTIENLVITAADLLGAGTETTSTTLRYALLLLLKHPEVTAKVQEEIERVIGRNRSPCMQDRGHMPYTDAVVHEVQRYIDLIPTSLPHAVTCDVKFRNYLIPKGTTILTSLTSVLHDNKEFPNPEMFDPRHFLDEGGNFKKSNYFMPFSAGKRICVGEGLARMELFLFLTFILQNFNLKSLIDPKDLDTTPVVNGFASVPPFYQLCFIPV

Cytochrome P450 2C9 = Cytochrome P450 2C9 (Homo sapiens, UniProt P11712)
Sequence of Cytochrome P450 2C9 (P11712 whole entry): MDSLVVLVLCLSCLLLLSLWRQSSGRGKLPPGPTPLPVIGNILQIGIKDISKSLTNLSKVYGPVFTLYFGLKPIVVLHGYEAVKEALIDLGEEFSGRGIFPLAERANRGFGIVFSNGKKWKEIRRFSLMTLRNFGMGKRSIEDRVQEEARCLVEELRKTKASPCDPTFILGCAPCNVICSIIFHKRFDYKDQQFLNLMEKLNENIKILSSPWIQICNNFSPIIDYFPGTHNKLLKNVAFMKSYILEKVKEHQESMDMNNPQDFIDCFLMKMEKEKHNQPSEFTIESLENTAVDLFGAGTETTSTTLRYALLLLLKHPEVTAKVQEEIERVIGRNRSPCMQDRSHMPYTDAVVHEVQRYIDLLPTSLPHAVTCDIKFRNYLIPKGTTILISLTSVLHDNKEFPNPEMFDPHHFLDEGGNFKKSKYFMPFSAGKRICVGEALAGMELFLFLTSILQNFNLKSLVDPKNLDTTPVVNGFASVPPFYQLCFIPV

[10] = inhibitors of firefly luciferase expression or activity, dose response, H4 neuroglioma cells, luminescence (AID 1990); format: functional, cell-based
[11] = Luminescence Cell-Based Dose Response HTS to Identify Inhibitors of 5'UTR Stem-Loop Driven Prion Protein mRNA Translation in H4 Neuroglioblastoma Cells. [Related pubchem assays: 1827 (Project Summary), 1813 (Primary HTS)]; format: functional
[12] = inhibitors of SNCA 5'UTR-driven reporter translation, confirmation, H4 neuroglioma cells, luminescence (AID 1988); format: functional, cell-based

COc1ccc2sc(-c3ccc(S(C)(=O)=O)cc3)c(C(=O)NCCc3c[nH]c4ccccc34)c2c1
EC50 [1]: > 53 µM (inactive)
IC50 [2]: > 47.1 µM (inactive)

Cc1ccc2nc(N3C(=O)C(O)=C(C(=O)c4ccco4)C3c3cccc(O)c3)sc2c1 (stereo not drawn)
EC50 [1]: > 53 µM (inactive)
IC50 [2]: < 0.368 µM (active)

CCOC(=O)c1cc(C#N)c(N2CCN(c3ccc(OC)cc3)CC2)nc1O
EC50 [3]: 0.046 µM (active)
EC50 [4]: > 150 µM (inconclusive)

Oc1ccnc2c(Cl)cccc12
EC50 [1]: > 53 µM (inactive)
IC50 [2]: > 47.1 µM (inactive)

Cc1ccc(CN2CC(C(=O)Nc3nnc(SCc4c(Cl)cccc4Cl)s3)CC2=O)cc1 (stereo not drawn)
EC50 (Streptokinase A): 5.57 µM (active)
EC50 [5]: 4.07 µM (active)
EC50 (Streptococcus): 37.2 µM (active)

Cc1ccc(S(=O)(=O)N2CCN(c3ncnc4sccc34)CC2)cc1
AC50 (INS1): 5.64 µM (active)
AC50 [6]: 6.76 µM (active)
AC50 [7]: 5.22 µM (active)
AC50 [8]: 2.72 µM (active)

O=C(NCc1cccnc1)c1ccc(-c2ccc(F)c(F)c2)c2ccoc12
AC50 [6]: 6.48 µM (active)
AC50 [7]: 4.19 µM (active)
AC50 [8]: 3.48 µM (active)

O=C(N/N=C/c1cc(Br)c(Br)o1)c1ccc2c(c1)OCCO2
EC50 [3]: 3.24 µM (active)
EC50 [4]: > 150 µM (inconclusive)

Cc1cccc(N2CCN(S(=O)(=O)c3ccc(Cl)nc3)CC2C)c1 (stereo not drawn)
EC50 [1]: > 53 µM (inactive)
IC50 [2]: > 47.1 µM (inactive)

COc1ccc2nc(N3C(=O)CNC3=S)sc2c1
EC50 (Streptokinase A): > 150 µM (not active)
EC50 [5]: 3.47 µM (active)
EC50 (Streptococcus): > 150 µM (not active)

COc1ccc(-c2cn3cc(C)ccc3n2)cc1OC
EC50 [9]: > 260 µM (inactive)

CC12CCC(C(=O)Nc3ncc([N+](=O)[O-])s3)(OC1=O)C2(C)C (stereo not drawn)
EC50 [3]: 0.629 µM (active)
AC50 (Cytochrome P450 2C19): inconclusive
AC50 (Cytochrome P450 2C9): 11.2 µM (inconclusive)
EC50 [1]: > 53 µM (inactive)
EC50 [4]: > 160 µM (inactive)
IC50 [2]: > 47.1 µM (inactive)

O=C(NCCNC(=O)C(c1ccccc1)c1ccccc1)c1ccco1
EC50 [3]: > 38 µM (not active)
EC50 [4]: > 150 µM (inactive)

CCO/C(O)=C1\C(C)=Nc2nc3ccccc3n2C1c1ccncc1 (stereo not drawn)
EC50 [10]: > 120 µM (not active)
EC50 [9]: > 260 µM (inactive)
EC50 [11]: > 120 µM (not active)
EC50 [12]: > 120 µM (not active)

CCOc1ncccc1C(=O)NCCc1c[nH]c2ccccc12
EC50 [9]: > 260 µM (inactive)

CCN(CC)S(=O)(=O)c1cccc(C(=O)Nc2ccc3c(c2)OCO3)c1
EC50 [1]: > 53 µM (inactive)
IC50 [2]: > 47.1 µM (inactive)

COC(=O)CC(NC(=O)c1ccc(C)cc1)c1ccc2c(c1)OCO2 (stereo not drawn)
EC50 [1]: > 53 µM (inactive)
IC50 [2]: > 47.1 µM (inactive)
